Results as given in patent US20230295200A1 (REGENTS OF THE UNIVERSITY OF MICHIGAN, priority 2022, published 2023).

These compounds were tested against T1, STAT6 protein (Homo sapiens, UniProt P42226) (assay: Fluorescence polarization (FP) binding assay, STAT6). Settings: FP competition, 5 nM fluorescein-labeled tracer, 200 nM protein, PBS pH7.4; read-out: Binding STAT6.
T1 sequence (P42226 1-847): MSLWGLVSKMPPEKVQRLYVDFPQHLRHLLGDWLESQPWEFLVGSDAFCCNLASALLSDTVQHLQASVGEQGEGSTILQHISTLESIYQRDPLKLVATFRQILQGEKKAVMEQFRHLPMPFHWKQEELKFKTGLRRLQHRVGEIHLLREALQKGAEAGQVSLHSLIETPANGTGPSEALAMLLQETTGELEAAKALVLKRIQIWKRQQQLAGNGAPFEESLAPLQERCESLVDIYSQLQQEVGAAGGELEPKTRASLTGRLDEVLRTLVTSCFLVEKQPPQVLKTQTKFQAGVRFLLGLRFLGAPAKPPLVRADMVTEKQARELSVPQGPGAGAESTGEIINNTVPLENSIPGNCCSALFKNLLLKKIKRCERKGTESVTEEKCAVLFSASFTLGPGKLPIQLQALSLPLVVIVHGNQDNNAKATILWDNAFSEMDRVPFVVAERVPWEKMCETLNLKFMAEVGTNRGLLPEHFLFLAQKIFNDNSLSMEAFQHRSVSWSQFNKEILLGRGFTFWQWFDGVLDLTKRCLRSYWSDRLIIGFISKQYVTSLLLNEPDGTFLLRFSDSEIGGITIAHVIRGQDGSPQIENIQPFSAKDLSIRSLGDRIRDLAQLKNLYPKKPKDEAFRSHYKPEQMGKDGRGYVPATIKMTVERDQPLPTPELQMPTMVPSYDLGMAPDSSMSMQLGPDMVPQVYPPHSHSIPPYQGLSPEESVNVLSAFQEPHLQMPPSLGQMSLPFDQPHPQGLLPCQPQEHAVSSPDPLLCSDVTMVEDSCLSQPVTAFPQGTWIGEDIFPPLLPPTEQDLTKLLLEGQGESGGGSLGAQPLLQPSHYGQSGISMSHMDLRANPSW
In short: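 Polarization read after 1 h equilibration at room temperature (preceded by 15 min shaking) of 200 nM STAT5 and/or STAT6 with 5 nM fluorescein tracer. Buffer: PBS pH 7.4 plus 0.01% BGG, 0.01% Tween-20, 2 mM DTT; inhibition constants derived by nonlinear fitting.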

First: CCCC[C@H](NC(=O)c1cc2cc(C(F)(F)P(=O)(O)O)ccc2s1)C(=O)N1CCC[C@H]1C(=O)N1CCO[C@H](c2ccccc2)C1 [Compound 272, (difluoro(2-(((S)-1-oxo-1-((S)-2-((R)-2-phenylmorpholine-4-carbonyl)pyrrolidin-1-yl)hexan-2-yl)carbamoyl)benzo[b]thiophen-5-yl)methyl)phosphonic acid]
Second: NCCC[C@H](NC(=O)c1cc2cc(C(F)(F)P(=O)(O)O)ccc2s1)C(=O)N1CCC[C@H]1C(=O)N1CCO[C@H](c2ccccc2)C1 [Compound 280, ((2-(((S)-5-amino-1-oxo-1-((S)-2-((R)-2-phenylmorpholine-4-carbonyl)pyrrolidin-1-yl)pentan-2-yl)carbamoyl)benzo[b]thiophen-5-yl)difluoromethyl)phosphonic acid]
The Ki of the first is higher: 100 to 1000 nM for the first, under 100 nM for the second.

`O=C(N[C@@H](Cc1ccc(Br)cc1)C(=O)N1CCC[C@H]1C(=O)N1CCO[C@H](c2ccccc2)C1)c1cc2cc(C(F)(F)P(=O)(O)O)ccc2s1` [Compound 273, ((2-(((S)-3-(4-bromophenyl)-1-oxo-1-((S)-2-((R)-2-phenylmorpholine-4-carbonyl)pyrrolidin-1-yl)propan-2-yl)carbamoyl)benzo[b]thiophen-5-yl)difluoromethyl)phosphonic acid] and `COc1ccc(C[C@H](NC(=O)c2cc3cc(C(F)(F)P(=O)(O)O)ccc3s2)C(=O)N2CCC[C@H]2C(=O)N2CCO[C@H](c3ccccc3)C2)cc1` [Compound 284, (difluoro(2-(((S)-3-(4-methoxyphenyl)-1-oxo-1-((S)-2-((R)-2-phenylmorpholine-4-carbonyl)pyrrolidin-1-yl)propan-2-yl)carbamoyl)benzo[b]thiophen-5-yl)methyl)phosphonic acid] fall in the same range of Ki: 100 to 1000 nM for the first, 100 to 1000 nM for the second.

`CN(C)CCC[C@H](NC(=O)c1cc2cc(C(F)(F)P(=O)(O)O)ccc2s1)C(=O)N1CCC[C@H]1C(=O)N1CCO[C@H](c2ccccc2)C1` [Compound 274, ((2-(((S)-5-(dimethylamino)-1-oxo-1-((S)-2-((R)-2-phenylmorpholine-4-carbonyl)pyrrolidin-1-yl)pentan-2-yl)carbamoyl)benzo[b]thiophen-5-yl)difluoromethyl)phosphonic acid] and `CN(C)CC[C@H](NC(=O)c1cc2cc(C(F)(F)P(=O)(O)O)ccc2s1)C(=O)N1CCC[C@H]1C(=O)N1CCO[C@H](c2ccccc2)C1` [Compound 275, ((2-(((S)-4-(dimethylamino)-1-oxo-1-((S)-2-((R)-2-phenylmorpholine-4-carbonyl)pyrrolidin-1-yl)butan-2-yl)carbamoyl)benzo[b]thiophen-5-yl)difluoromethyl)phosphonic acid] fall in the same range of Ki: 100 to 1000 nM for the first, 100 to 1000 nM for the second.

`NC(=O)CC[C@H](NC(=O)c1cc2cc(C(F)(F)P(=O)(O)O)ccc2s1)C(=O)N1CCC[C@H]1C(=O)N1CCO[C@H](c2ccccc2)C1` [Compound 276, ((2-(((S)-5-amino-1,5-dioxo-1-((S)-2-((R)-2-phenylmorpholine-4-carbonyl)pyrrolidin-1-yl)pentan-2-yl)carbamoyl)benzo[b]thiophen-5-yl)difluoromethyl)phosphonic acid] and `O=C(N[C@@H](Cc1cccs1)C(=O)N1CCC[C@H]1C(=O)N1CCO[C@H](c2ccccc2)C1)c1cc2cc(C(F)(F)P(=O)(O)O)ccc2s1` [Compound 287, (difluoro(2-(((S)-1-oxo-1-((S)-2-((R)-2-phenylmorpholine-4-carbonyl)pyrrolidin-1-yl)-3-(thiophen-2-yl)propan-2-yl)carbamoyl)benzo[b]thiophen-5-yl)methyl)phosphonic acid] fall in the same range of Ki: 100 to 1000 nM for the first, 100 to 1000 nM for the second.

First: CC(C)(C)c1ccc(C[C@H](NC(=O)c2cc3cc(C(F)(F)P(=O)(O)O)ccc3s2)C(=O)N2CCC[C@H]2C(=O)N2CCO[C@H](c3ccccc3)C2)cc1 [Compound 277, ((2-(((S)-3-(4-(tert-butyl)phenyl)-1-oxo-1-((S)-2-((R)-2-phenylmorpholine-4-carbonyl)pyrrolidin-1-yl)propan-2-yl)carbamoyl)benzo[b]thiophen-5-yl)difluoromethyl)phosphonic acid]
Second: Cc1cccc(C[C@H](NC(=O)c2cc3cc(C(F)(F)P(=O)(O)O)ccc3s2)C(=O)N2CCC[C@H]2C(=O)N2CCO[C@H](c3ccccc3)C2)c1 [Compound 283, (difluoro(2-(((S)-1-oxo-1-((S)-2-((R)-2-phenylmorpholine-4-carbonyl)pyrrolidin-1-yl)-3-(m-tolyl)propan-2-yl)carbamoyl)benzo[b]thiophen-5-yl)methyl)phosphonic acid]
The Ki of the first is lower: under 100 nM for the first, 100 to 1000 nM for the second. The first binds more tightly here.

First: O=C(N[C@@H](Cc1ccc(F)c(F)c1)C(=O)N1CCC[C@H]1C(=O)N1CCO[C@H](c2ccccc2)C1)c1cc2cc(C(F)(F)P(=O)(O)O)ccc2s1 [Compound 278, ((2-(((S)-3-(3,4-difluorophenyl)-1-oxo-1-((S)-2-((R)-2-phenylmorpholine-4-carbonyl)pyrrolidin-1-yl)propan-2-yl)carbamoyl)benzo[b]thiophen-5-yl)difluoromethyl)phosphonic acid]
Second: N#Cc1cccc(C[C@H](NC(=O)c2cc3cc(C(F)(F)P(=O)(O)O)ccc3s2)C(=O)N2CCC[C@H]2C(=O)N2CCO[C@H](c3ccccc3)C2)c1 [Compound 281, ((2-(((S)-3-(3-cyanophenyl)-1-oxo-1-((S)-2-((R)-2-phenylmorpholine-4-carbonyl)pyrrolidin-1-yl)propan-2-yl)carbamoyl)benzo[b]thiophen-5-yl)difluoromethyl)phosphonic acid]
The Ki of the first is higher: 100 to 1000 nM for the first, under 100 nM for the second.

Compared with `O=C(N[C@H](C(=O)N1CCC[C@H]1C(=O)N1CCO[C@H](c2ccccc2)C1)C1CCCCC1)c1cc2cc(C(F)(F)P(=O)(O)O)ccc2s1` [Compound 279, ((2-(((S)-1-cyclohexyl-2-oxo-2-((S)-2-((R)-2-phenylmorpholine-4-carbonyl)pyrrolidin-1-yl)ethyl)carbamoyl)benzo[b]thiophen-5-yl)difluoromethyl)phosphonic acid], `O=C(N[C@@H](Cc1cccc([N+](=O)[O-])c1)C(=O)N1CCC[C@H]1C(=O)N1CCO[C@H](c2ccccc2)C1)c1cc2cc(C(F)(F)P(=O)(O)O)ccc2s1` [Compound 282, (difluoro(2-(((S)-3-(3-nitrophenyl)-1-oxo-1-((S)-2-((R)-2-phenylmorpholine-4-carbonyl)pyrrolidin-1-yl)propan-2-yl)carbamoyl)benzo[b]thiophen-5-yl)methyl)phosphonic acid] is lower in Ki: 100 to 1000 nM for the first, under 100 nM for the second. The second binds more tightly here.

`O=C(N[C@@H](Cc1ccc2ccccc2c1)C(=O)N1CCC[C@H]1C(=O)N1CCO[C@H](c2ccccc2)C1)c1cc2cc(C(F)(F)P(=O)(O)O)ccc2s1` [Compound 285, (difluoro(2-(((S)-3-(naphthalen-2-yl)-1-oxo-1-((S)-2-((R)-2-phenylmorpholine-4-carbonyl)pyrrolidin-1-yl)propan-2-yl)carbamoyl)benzo[b]thiophen-5-yl)methyl)phosphonic acid] and `O=C(N[C@@H](Cc1nc2ccccc2s1)C(=O)N1CCC[C@H]1C(=O)N1CCO[C@H](c2ccccc2)C1)c1cc2cc(C(F)(F)P(=O)(O)O)ccc2s1` [Compound 286, ((2-(((S)-3-(benzo[d]thiazol-2-yl)-1-oxo-1-((S)-2-((R)-2-phenylmorpholine-4-carbonyl)pyrrolidin-1-yl)propan-2-yl)carbamoyl)benzo[b]thiophen-5-yl)difluoromethyl)phosphonic acid] fall in the same range of Ki: 100 to 1000 nM for the first, 100 to 1000 nM for the second.
